Blank lines part the entries; values can stand above or below the compound they belong to.
Legend:
[1] = Dissociation constant, pKa of the compound; format: physicochemical
Beta-secretase 1 [2] = molecular target: T1, Beta-secretase 1 (Homo sapiens, UniProt P56817); assay: Inhibition of human BACE1 using Biotin-XSEVNLDAEFRHDSGC as substrate incubated for […] by fluorescence method
Mus musculus = assay: In vivo inhibition of BACE1 in C57B1/6J mouse assessed as reduction in amyloidbeta 40 level in brain at 30 mg/kg, po measured at 4 hrs post dose by ELISA relative to control; format: functional
Beta-secretase 1 [3] = molecular target: T1, Beta-secretase 1; assay: Inhibition of human BACE1 catalytic domain preincubated for 30 mins followed by QSY7-EISEVNLDAEFC-Europium-amide substrate addition and measured after […] by HTRF assay
Beta-secretase 2 [4] = molecular target: T2, Beta-secretase 2 (Homo sapiens, UniProt Q9Y5Z0); assay: Inhibition of human BACE2 preincubated for 30 mins followed by QSY7- EISEVNLDAEFC-Eu-amide substrate addition and measured after […] by HTRF assay
T2 sequence (Q9Y5Z0 whole entry): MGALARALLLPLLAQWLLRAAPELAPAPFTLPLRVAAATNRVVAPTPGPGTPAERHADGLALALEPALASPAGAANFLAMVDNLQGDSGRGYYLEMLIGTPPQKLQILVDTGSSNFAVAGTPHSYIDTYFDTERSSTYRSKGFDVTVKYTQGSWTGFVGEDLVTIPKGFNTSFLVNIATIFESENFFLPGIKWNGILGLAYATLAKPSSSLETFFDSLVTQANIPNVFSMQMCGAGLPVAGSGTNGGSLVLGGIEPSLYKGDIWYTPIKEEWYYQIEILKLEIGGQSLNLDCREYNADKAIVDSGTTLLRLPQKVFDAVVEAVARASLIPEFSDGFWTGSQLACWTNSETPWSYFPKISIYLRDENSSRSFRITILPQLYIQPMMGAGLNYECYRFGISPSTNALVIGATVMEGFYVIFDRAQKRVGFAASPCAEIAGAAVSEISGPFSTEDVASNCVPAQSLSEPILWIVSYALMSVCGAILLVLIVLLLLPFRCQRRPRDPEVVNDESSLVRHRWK

Beta-secretase 1 [5] = molecular target: T1, Beta-secretase 1; assay: Inhibition of BACE1 in HEK293 cells harboring APP assessed as reduction in amyloidbeta 40 level incubated for 18 to 20 hrs by AlphaLISA Assay; format: cell-based
Beta-secretase 1 [6] = molecular target: T1, Beta-secretase 1; assay: Inhibition of BACE1 in human SK-N-BE(2) cells expressing human APP695 assessed as reduction in amyloidbeta level incubated for 18 hrs by sandwich ELISA; format: cell-based
Beta-secretase 1 [7] = molecular target: T1, Beta-secretase 1; assay: Inhibition of BACE1 in human SH-SY5Y cells expressing betaAPP assessed as reduction in amyloidbeta (1 to 40 residues) level incubated for 24 hrs by HTRF assay; format: cell-based
Beta-secretase 2 [8] = molecular target: T2, Beta-secretase 2; assay: Inhibition of BACE2 (unknown origin)
P-glycoprotein (ABCB1) = P-glycoprotein (ABCB1) (Homo sapiens, UniProt P08183); assay: Substrate activity at p-glycoprotein (unknown origin) assessed as efflux ratio; settings: not told
Beta-secretase 1 [9] = molecular target: T1, Beta-secretase 1; assay: Inhibition of BACE1 (unknown origin)
Beta-secretase 1 [10] = molecular target: Beta-secretase 1 (Rattus norvegicus, UniProt P56819); assay: Inhibition of BACE1 in Wistar rat neuronal cell suspension after 1 to 3 days by ELISA
Beta-secretase 2 [11] = molecular target: T2, Beta-secretase 2; assay: Inhibition of BACE2 (unknown origin) incubated for 450 mins using APP swedish mutant as substrate by FRET assay
Beta-secretase 1 [12] = molecular target: T1, Beta-secretase 1; assay: Inhibition of BACE1 in human SK-N-BE(2) cells expressing human APP695 assessed as reduction in amyloidbeta (1 to 42 residues) level incubated for 18 hrs by sandwich ELISA; format: cell-based
Beta-secretase 1 [13] = molecular target: T1, Beta-secretase 1; assay: Inhibition of BACE1 (unknown origin) incubated for 120 mins using APP swedish mutant as substrate by FRET assay
Beta-secretase 1 [14] = molecular target: T1, Beta-secretase 1; assay: Inhibition of BACE1 (unknown origin) by cell-based assay
Beta-secretase 1 [15] = molecular target: T1, Beta-secretase 1; assay: Inhibition of BACE1 (unknown origin) assessed as reduction in amyloidbeta 40 level after 24 hrs by cell-based sandwich ELISA

T1 sequence (P56817 whole entry): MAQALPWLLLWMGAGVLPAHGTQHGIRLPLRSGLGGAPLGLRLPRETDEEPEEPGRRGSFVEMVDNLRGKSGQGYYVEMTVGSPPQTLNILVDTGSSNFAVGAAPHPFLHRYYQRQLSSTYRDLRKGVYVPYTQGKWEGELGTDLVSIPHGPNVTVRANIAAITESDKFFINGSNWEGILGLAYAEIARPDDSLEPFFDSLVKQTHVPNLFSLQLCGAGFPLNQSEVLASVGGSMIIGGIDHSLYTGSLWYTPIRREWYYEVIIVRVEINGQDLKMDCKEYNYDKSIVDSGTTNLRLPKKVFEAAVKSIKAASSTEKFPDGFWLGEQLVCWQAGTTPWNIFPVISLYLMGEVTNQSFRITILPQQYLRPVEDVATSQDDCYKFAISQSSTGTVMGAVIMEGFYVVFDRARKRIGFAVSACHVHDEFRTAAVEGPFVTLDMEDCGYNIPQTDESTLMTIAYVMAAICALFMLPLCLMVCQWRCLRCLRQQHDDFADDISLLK
P-glycoprotein (ABCB1), sequence (P08183 whole entry): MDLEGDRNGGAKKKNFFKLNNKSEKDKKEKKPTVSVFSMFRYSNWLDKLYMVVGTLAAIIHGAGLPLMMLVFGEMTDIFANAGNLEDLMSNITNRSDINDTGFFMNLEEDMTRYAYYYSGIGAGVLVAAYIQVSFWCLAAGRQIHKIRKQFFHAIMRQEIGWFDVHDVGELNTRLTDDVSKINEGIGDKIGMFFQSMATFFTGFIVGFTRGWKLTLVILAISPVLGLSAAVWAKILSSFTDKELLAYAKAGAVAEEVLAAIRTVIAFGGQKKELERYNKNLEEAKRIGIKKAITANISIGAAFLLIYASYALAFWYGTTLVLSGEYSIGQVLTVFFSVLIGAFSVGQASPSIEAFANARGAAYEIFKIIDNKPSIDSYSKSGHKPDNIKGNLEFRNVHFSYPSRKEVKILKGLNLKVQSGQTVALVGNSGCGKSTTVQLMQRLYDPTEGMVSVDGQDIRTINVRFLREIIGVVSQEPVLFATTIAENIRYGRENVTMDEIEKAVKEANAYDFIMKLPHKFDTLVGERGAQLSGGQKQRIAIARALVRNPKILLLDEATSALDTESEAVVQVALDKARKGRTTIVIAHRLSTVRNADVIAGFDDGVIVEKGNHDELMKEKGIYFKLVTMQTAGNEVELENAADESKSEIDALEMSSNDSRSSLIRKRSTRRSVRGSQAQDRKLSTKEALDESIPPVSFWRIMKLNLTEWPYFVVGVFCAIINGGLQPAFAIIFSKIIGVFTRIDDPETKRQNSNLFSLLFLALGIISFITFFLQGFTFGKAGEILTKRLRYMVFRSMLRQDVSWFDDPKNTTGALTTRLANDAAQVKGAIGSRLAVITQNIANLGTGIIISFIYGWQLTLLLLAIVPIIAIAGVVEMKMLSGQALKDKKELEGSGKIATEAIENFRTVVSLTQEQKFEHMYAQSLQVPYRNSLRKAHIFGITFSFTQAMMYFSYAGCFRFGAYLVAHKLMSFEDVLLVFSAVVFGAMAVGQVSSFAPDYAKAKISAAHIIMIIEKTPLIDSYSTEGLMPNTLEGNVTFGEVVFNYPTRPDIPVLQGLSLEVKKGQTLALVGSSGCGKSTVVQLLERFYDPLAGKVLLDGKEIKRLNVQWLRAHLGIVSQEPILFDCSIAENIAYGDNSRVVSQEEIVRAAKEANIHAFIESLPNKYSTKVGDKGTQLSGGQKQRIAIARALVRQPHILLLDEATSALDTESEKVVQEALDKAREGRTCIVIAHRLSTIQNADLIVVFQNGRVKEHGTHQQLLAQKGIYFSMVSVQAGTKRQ
Beta-secretase 1 (Rattus norvegicus, UniProt P56819), sequence (P56819 whole entry): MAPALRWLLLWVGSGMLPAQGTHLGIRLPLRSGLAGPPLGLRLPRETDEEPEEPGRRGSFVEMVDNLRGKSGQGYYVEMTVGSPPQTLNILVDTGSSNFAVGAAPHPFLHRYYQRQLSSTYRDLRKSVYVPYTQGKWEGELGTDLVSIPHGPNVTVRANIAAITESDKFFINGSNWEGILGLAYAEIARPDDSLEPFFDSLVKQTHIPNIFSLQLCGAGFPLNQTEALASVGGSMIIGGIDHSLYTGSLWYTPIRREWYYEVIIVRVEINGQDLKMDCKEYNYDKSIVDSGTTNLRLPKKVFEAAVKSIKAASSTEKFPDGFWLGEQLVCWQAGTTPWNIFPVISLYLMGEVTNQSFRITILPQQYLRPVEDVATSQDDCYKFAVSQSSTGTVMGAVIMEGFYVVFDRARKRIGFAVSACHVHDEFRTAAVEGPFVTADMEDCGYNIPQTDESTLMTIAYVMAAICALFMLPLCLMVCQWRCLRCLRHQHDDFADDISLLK

Compound: NC1=N[C@@]2(c3cc(CNCC(F)(F)F)c(F)cc3F)CO[C@@H](CF)C[C@H]2CS1
- pKa [1]: 7.9

Compound: C#C[C@]1(c2cc(NC(=O)c3ccc(C#N)cn3)ccc2F)N=C(N)O[C@@H]2C[C@@H]21
- IC50 (Beta-secretase 1 [2]): 22.8 nM

Compound: Cc1cc(C#N)cnc1C(=O)Nc1ccc(F)c([C@@]2(C)N=C(N)C(C)(C)[S@@]3(=O)=NCC[C@@H]23)c1
- inhibition in vivo at 30 mg/kg (Mus musculus): 86%

Compound: CN=[S@@]1(=O)C[C@@](C)(c2cc(NC(=O)c3ccc(Cl)cn3)ccc2F)N=C(N)C1(C)C
- Ki (Beta-secretase 1 [3]): 3 nM
- Ki (Beta-secretase 2 [4]): 1 nM

Compound: NC1=N[C@@]2(c3cccc(NC(=O)c4cnc(C(F)F)cn4)c3)CCO[C@H]2CS1
- IC50 (Beta-secretase 1 [10]): 8 nM

Compound: Cc1cc(C#N)cnc1C(=O)Nc1ccc(F)c([C@]2(C)CS3(=O)=NCCCCC3(C)C(N)=N2)c1 (stereo partly specified)
- IC50 (Beta-secretase 1 [5]): 0.2 nM
- inhibition in vivo at 30 mg/kg (Mus musculus): 52%

Compound: CN1C(=N)N[C@]2(C)c3cc(NC(=O)c4ccc(C#N)cn4)ccc3OCC[C@H]2S1(=O)=O (relative stereo)
- Ki (Beta-secretase 1 [3]): 1 nM
- Ki (Beta-secretase 2 [4]): 14 nM

Compound: COc1ncc(C(=O)NC2CC2)c2c1C[C@]1(c3ccc(F)cc3F)N=C(N)SC[C@@H]1C2
- IC50 (Beta-secretase 1 [6]): 9.6 nM

Compound: C[C@]1(c2cc(NC(=O)c3ccc(C#N)cn3)ccc2F)N=C(N)OCC12CC(F)(F)C2
- IC50 (Beta-secretase 1 [7]): 0.615 nM

Compound: CN1CC2(C1)C(=N)N[C@](C)(c1cc(NC(=O)c3ccc(Cl)cn3)ccc1F)CS2(=O)=O
- Ki (Beta-secretase 1 [3]): 6.1 nM
- Ki (Beta-secretase 2 [4]): 1.2 nM

Compound: CN1C(N)=N[C@](C)(c2cc(NC(=S)c3ccc(C#N)cn3)ccc2F)CS1(=O)=O
- Ki (Beta-secretase 1 [3]): 9.1 nM
- Ki (Beta-secretase 2 [4]): 1 nM

Compound: C[C@@]1(c2cc(NC(=O)c3ccc(C#N)cc3)ccc2F)Cn2cnc(C(F)F)c2C(N)=N1
- IC50 (Beta-secretase 1 [14]): 0.95 nM
- IC50 (Beta-secretase 2 [8]): 15.8 nM
- IC50 (Beta-secretase 1 [9]): 3.5 nM

Compound: C[C@]1(c2cc(NC(=O)c3ccc(C#N)cn3)ccc2F)N=C(N)OC2(COC2)[C@H]1F
- IC50 (Beta-secretase 1 [2]): 20.7 nM

Second part, the compound after the results:

- IC50 (Beta-secretase 1 [5]): 9 nM
Compound: CC#CCOc1cnc(C2=Nc3cc([C@]4(C)C[C@@H](C(F)(F)F)OC(N)=N4)c(F)cc3CN2)cn1

- IC50 (Beta-secretase 1 [6]): 0.76 nM
Compound: COc1ncc(CC2CCOCC2)c2c1C[C@]1(c3ccc(F)cc3F)N=C(N)SC[C@@H]1C2

- IC50 (Beta-secretase 1 [7]): 0.391 nM
Compound: C[C@]1(c2cc(NC(=O)c3ccc(C#N)cn3)ccc2F)N=C(N)O[C@H]2[C@@H]1OCC2(F)F

- IC50 (Beta-secretase 2 [8]): 0.5 nM
- efflux ratio (P-glycoprotein (ABCB1)): 1.6
- IC50 (Beta-secretase 1 [9]): 6.13 nM
Compound: CC(F)(F)[C@@H]1C[C@@](C)(c2cc(NC(=O)c3ccc(OCF)cn3)ccc2F)N=C(N)S1

- IC50 (Beta-secretase 2 [11]): 66 nM
- IC50 (Beta-secretase 1 [12]): 6.9 nM
- IC50 (Beta-secretase 1 [13]): 9.8 nM
Compound: COc1ccc(C(=O)Nc2ccc(F)c([C@]3(C)CC[C@@](C)(C#N)C(N)=N3)c2)nc1

- IC50 (Beta-secretase 1 [5]): 0.99 nM
Compound: Cc1cc(C#N)cnc1C(=O)Nc1ccc(F)c([C@]2(C)CS(=O)(=NCC(F)(F)F)N(C)C(N)=N2)c1 (single isomer, unassigned)

- IC50 (Beta-secretase 1 [5]): 2 nM
Compound: Cc1cc(C#N)cnc1C(=O)Nc1ccc(F)c([C@]2(C)CS3(=O)=NCCCCN3C(N)=N2)c1 (stereo partly specified)

- IC50 (Beta-secretase 1 [10]): 4 nM
Compound: COc1cnc(C(=O)Nc2ccc(F)c([C@]34CO[C@H](C(F)F)[C@H]3CSC(N)=N4)c2)cn1

- IC50 (Beta-secretase 1 [15]): 0.64 nM
Compound: C#CCOc1cnc(C(=O)Nc2cc(F)c(F)c([C@@]3(CF)N=C(N)S[C@H]4C[C@H]43)c2)cn1

- IC50 (Beta-secretase 2 [8]): 0.19 nM
- efflux ratio (P-glycoprotein (ABCB1)): 1.1
- IC50 (Beta-secretase 1 [9]): 6.23 nM
Compound: C[C@@]1(c2cc(NC(=O)c3cnc(OCF)cn3)ccc2F)C[C@@H](C(F)F)SC(N)=N1

Reference: ChEMBL document CHEMBL4342403, “New evolutions in the BACE1 inhibitor field from 2014 to 2018” (Bioorg Med Chem Lett, 2019)
